Data as given in patent US12077503B2, “Substituted cyclic amides and their use as herbicides” (FMC CORPORATION, priority 2015, dated 2024).

How the values were obtained:
Assay in all cases: Test C preemergence
Assay type in all cases: in vivo
[1] = test system: oilseed rape (Brassica napus); conditions: for Plant response rating, Oilseed Rape: scale 0 to 100, 0 no effect, 100 complete control
Procedure, shortened: (§1)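 Herbicidal effect, applied preemergence to sown seeds or postemergence to 1- to 4-leaf plants, was scored visually 13 to 15 d after application, 0 to 100 versus controls.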

[2] = test system: waterhemp (common waterhemp, Amaranthus rudis); conditions: for Plant response rating, Waterhemp: scale 0 to 100, 0 no effect, 100 complete control
Procedure, shortened: as §1

[3] = test system: ryegrass, Italian (Italian ryegrass, Lolium multiflorum); conditions: for Plant response rating, Ryegrass, Italian: scale 0 to 100, 0 no effect, 100 complete control
Procedure, shortened: as §1

corn (Zea mays) = conditions: for Plant response rating, Corn: scale 0 to 100, 0 no effect, 100 complete control
Procedure, shortened: as §1

[4] = test system: blackgrass (Alopecurus myosuroides); conditions: for Plant response rating, Blackgrass: scale 0 to 100, 0 no effect, 100 complete control
Procedure, shortened: as §1

[5] = test system: Galium (catchweed bedstraw, Galium aparine); conditions: for Plant response rating, Galium: scale 0 to 100, 0 no effect, 100 complete control
Procedure, shortened: as §1

[6] = test system: velvetleaf (Abutilon theophrasti); conditions: for Plant response rating, Velvetleaf: scale 0 to 100, 0 no effect, 100 complete control
Procedure, shortened: as §1

[7] = test system: crabgrass, large (large crabgrass, Digitaria sanguinalis); conditions: for Plant response rating, Crabgrass, Large: scale 0 to 100, 0 no effect, 100 complete control
Procedure, shortened: as §1

[8] = test system: morningglory (Ipomoea coccinea); conditions: for Plant response rating, Morningglory: scale 0 to 100, 0 no effect, 100 complete control
Procedure, shortened: as §1

[9] = test system: ragweed (common ragweed, Ambrosia elatior); conditions: for Plant response rating, Ragweed: scale 0 to 100, 0 no effect, 100 complete control
Procedure, shortened: as §1

[10] = test system: pigweed (Amaranthus retroflexus); conditions: for Plant response rating, Pigweed: scale 0 to 100, 0 no effect, 100 complete control
Procedure, shortened: as §1

[11] = test system: lambsquarters (Chenopodium album); conditions: for Plant response rating, Lambsquarters: scale 0 to 100, 0 no effect, 100 complete control
Procedure, shortened: as §1

[12] = test system: barnyardgrass (Echinochloa crus-galli); conditions: for Plant response rating, Barnyardgrass: scale 0 to 100, 0 no effect, 100 complete control
Procedure, shortened: as §1

[13] = test system: wheat (winter wheat, Triticum aestivum); conditions: for Plant response rating, Wheat: scale 0 to 100, 0 no effect, 100 complete control
Procedure, shortened: as §1

[14] = test system: johnsongrass (Sorghum halepense); conditions: for Plant response rating, Johnsongrass: scale 0 to 100, 0 no effect, 100 complete control
Procedure, shortened: as §1

[15] = test system: nutsedge, yellow (yellow nutsedge, Cyperus esculentus); conditions: for Plant response rating, Nutsedge, Yellow: scale 0 to 100, 0 no effect, 100 complete control
Procedure, shortened: as §1

[16] = test system: foxtail, giant (giant foxtail, Setaria faberii); conditions: for Plant response rating, Foxtail, Giant: scale 0 to 100, 0 no effect, 100 complete control
Procedure, shortened: as §1

soybean (Glycine max) = conditions: for Plant response rating, Soybean: scale 0 to 100, 0 no effect, 100 complete control
Procedure, shortened: as §1

[17] = 31 g ai/ha, 0 is no effect, 100 is complete control

## O=C1NCC(c2cccc(C(F)(F)F)c2F)C1C(=O)Nc1cccc(F)c1F (stereo not drawn) [Compound 591]
[1]; [17]
  Plant response rating (scale of 0 to 100), Oilseed Rape: 5
[1]; 62 g ai/ha
  Plant response rating, Oilseed Rape: 20
[1]; 125 g ai/ha
  Plant response rating, Oilseed Rape: 30
[1]; 250 g ai/ha
  Plant response rating, Oilseed Rape: 85
[2]; [17]
  Plant response rating (scale of 0 to 100), Waterhemp: 5
[2]; 62 g ai/ha
  Plant response rating, Waterhemp: 30
[2]; 125 g ai/ha
  Plant response rating, Waterhemp: 65
[2]; 250 g ai/ha
  Plant response rating, Waterhemp: 70
[3]; [17]
  Plant response rating (scale of 0 to 100), Ryegrass, Italian: 0
[3]; 62 g ai/ha
  Plant response rating, Ryegrass, Italian: 10
[3]; 125 g ai/ha
  Plant response rating, Ryegrass, Italian: 35
[3]; 250 g ai/ha
  Plant response rating, Ryegrass, Italian: 75
Corn (Zea mays); [17]
  Plant response rating (scale of 0 to 100), Corn: 45
Corn (Zea mays); 62 g ai/ha
  Plant response rating, Corn: 70
Corn (Zea mays); 125 g ai/ha
  Plant response rating, Corn: 60
Corn (Zea mays); 250 g ai/ha
  Plant response rating, Corn: 80
[4]; [17]
  Plant response rating (scale of 0 to 100), Blackgrass: 30
[4]; 62 g ai/ha
  Plant response rating, Blackgrass: 85
[4]; 125 g ai/ha
  Plant response rating, Blackgrass: 90
[4]; 250 g ai/ha
  Plant response rating, Blackgrass: 90
[5]; [17]
  Plant response rating (scale of 0 to 100), Galium: 5
[5]; 62 g ai/ha
  Plant response rating, Galium: 50
[5]; 125 g ai/ha
  Plant response rating, Galium: 50
[5]; 250 g ai/ha
  Plant response rating, Galium: 80
[6]; [17]
  Plant response rating (scale of 0 to 100), Velvetleaf: 0
[6]; 62 g ai/ha
  Plant response rating, Velvetleaf: 0
[6]; 125 g ai/ha
  Plant response rating, Velvetleaf: 20
[6]; 250 g ai/ha
  Plant response rating, Velvetleaf: 20
[7]; [17]
  Plant response rating (scale of 0 to 100), Crabgrass, Large: 90
[7]; 62 g ai/ha
  Plant response rating, Crabgrass, Large: 90
[7]; 125 g ai/ha
  Plant response rating, Crabgrass, Large: 90
[7]; 250 g ai/ha
  Plant response rating, Crabgrass, Large: 95
[8]; [17]
  Plant response rating (scale of 0 to 100), Morningglory: 10
[8]; 62 g ai/ha
  Plant response rating, Morningglory: 30
[8]; 125 g ai/ha
  Plant response rating, Morningglory: 40
[8]; 250 g ai/ha
  Plant response rating, Morningglory: 65
[9]; [17]
  Plant response rating (scale of 0 to 100), Ragweed: 0
[9]; 62 g ai/ha
  Plant response rating, Ragweed: 20
[9]; 125 g ai/ha
  Plant response rating, Ragweed: 35
[9]; 250 g ai/ha
  Plant response rating, Ragweed: 70
[10]; [17]
  Plant response rating (scale of 0 to 100), Pigweed: 10
[10]; 62 g ai/ha
  Plant response rating, Pigweed: 45
[10]; 125 g ai/ha
  Plant response rating, Pigweed: 60
[10]; 250 g ai/ha
  Plant response rating, Pigweed: 75
[11]; [17]
  Plant response rating (scale of 0 to 100), Lambsquarters: 10
[11]; 62 g ai/ha
  Plant response rating, Lambsquarters: 20
[11]; 125 g ai/ha
  Plant response rating, Lambsquarters: 35
[11]; 250 g ai/ha
  Plant response rating, Lambsquarters: 70
[12]; [17]
  Plant response rating (scale of 0 to 100), Barnyardgrass: 90
[12]; 62 g ai/ha
  Plant response rating, Barnyardgrass: 90
[12]; 125 g ai/ha
  Plant response rating, Barnyardgrass: 95
[12]; 250 g ai/ha
  Plant response rating, Barnyardgrass: 95
[13]; [17]
  Plant response rating (scale of 0 to 100), Wheat: 0
[13]; 62 g ai/ha
  Plant response rating, Wheat: 10
[13]; 125 g ai/ha
  Plant response rating, Wheat: 30
[13]; 250 g ai/ha
  Plant response rating, Wheat: 70
[14]; [17]
  Plant response rating (scale of 0 to 100), Johnsongrass: 35
[14]; 62 g ai/ha
  Plant response rating, Johnsongrass: 55
[14]; 125 g ai/ha
  Plant response rating, Johnsongrass: 75
[14]; 250 g ai/ha
  Plant response rating, Johnsongrass: 85
[15]; [17]
  Plant response rating (scale of 0 to 100), Nutsedge, Yellow: 0
[15]; 62 g ai/ha
  Plant response rating, Nutsedge, Yellow: 0
[15]; 125 g ai/ha
  Plant response rating, Nutsedge, Yellow: 0
[15]; 250 g ai/ha
  Plant response rating, Nutsedge, Yellow: 0
[16]; [17]
  Plant response rating (scale of 0 to 100), Foxtail, Giant: 85
[16]; 62 g ai/ha
  Plant response rating, Foxtail, Giant: 90
[16]; 125 g ai/ha
  Plant response rating, Foxtail, Giant: 90
[16]; 250 g ai/ha
  Plant response rating, Foxtail, Giant: 95
Soybean (Glycine max); [17]
  Plant response rating (scale of 0 to 100), Soybean: 0
Soybean (Glycine max); 62 g ai/ha
  Plant response rating, Soybean: 0
Soybean (Glycine max); 125 g ai/ha
  Plant response rating, Soybean: 0
Soybean (Glycine max); 250 g ai/ha
  Plant response rating, Soybean: 0
